Experimental data from patent US20100119494A1, “METHODS AND COMPOSITIONS RELATED TO MODULATING THE EXTRACELLULAR STEM CELL ENVIRONMENT” (Massachusetts Institute of Technology, priority 2005, published 2010).

B1: Hep-I: HSGAG-degrading enzyme; cleaves HSGAGs at highly sulfated regions; gift of Momenta Pharmaceuticals (protein, UniProt Q05819 22-384, looked up)
Heparin lyase I: QQKKSGNIPYRVNVQADSAKQKAIIDNKWVAVGINKPYALQYDDKLRFNGKPSYRFELKAEDNSLEGYAAGETKGRTELSYSYATTNDFKKFPPSVYQNAQKLKTVYHYGKGICEQGSSRSYTFSVYIPSSFPDNATTIFAQWHGAPSRTLVATPEGEIKTLSIEEFLALYDRMIFKKNIAHDKVEKKDKDGKITYVAGKPNGWKVEQGGYPTLAFGFSKGYFYIKANSDRQWLTDKADRNNANPENSEVMKPYSSEYKTSTIAYKMPFAQFPKDCWITFDVAIDWTKYGKEANTILKPGKLDVMMTYTKNKKPQKAHIVNQQEILIGRNDDDGYYFKFGIYRVGNSTVPVTYNLSGYSETAR
B2: Hep-III: HSGAG-degrading enzyme; cleaves HSGAGs at undersulfated regions (protein, UniProt Q59289 25-659, looked up)
Heparin-sulfate lyase: QSSSITRKDFDHINLEYSGLEKVNKAVAAGNYDDAAKALLAYYREKSKAREPDFSNAEKPADIRQPIDKVTREMADKALVHQFQPHKGYGYFDYGKDINWQMWPVKDNEVRWQLHRVKWWQAMALVYHATGDEKYAREWVYQYSDWARKNPLGLSQDNDKFVWRPLEVSDRVQSLPPTFSLFVNSPAFTPAFLMEFLNSYHQQADYLSTHYAEQGNHRLFEAQRNLFAGVSFPEFKDSPRWRQTGISVLNTEIKKQVYADGMQFELSPIYHVAAIDIFLKAYGSAKRVNLEKEFPQSYVQTVENMIMALISISLPDYNTPMFGDSWITDKNFRMAQFASWARVFPANQAIKYFATDGKQGKAPNFLSKALSNAGFYTFRSGWDKNATVMVLKASPPGEFHAQPDNGTFELFIKGRNFTPDAGVFVYSGDEAIMKLRNWYRQTRIHSTLTLDNQNMVITKARQNKWETGNNLDVLTYTNPSYPNLDHQRSVLFINKKYFLVIDRAIGEATGNLGVHWQLKEDSNPVFDKTKNRVYTTYRDGNNLMIQSLNADRTSLNEEEGKVSYVYNKELKRPAFVFEKPKKNAGTQNFVSIVYPYDGQKAPEISIRENKGNDFEKGKLNLTLTINGKQQLVLVP

Tests used:
Assay type in all cases: cell-based, mouse
[1] = tested on: differentiating ES cells (J1); test: Flow cytometry of vWF in differentiating ES cells after enzymatic or pharmacological modification of HSGAGs; settings: FIG. 12B, Hep-I 1.5 μg/mL or Hep-III 2.5 μg/mL 30 minutes every day, sodium chlorate 10 mM in medium
Experimental: (§1) Mouse embryonic stem cells (J1) (gift from Bevin Engelward, Mass. Institute of Technology, Cambridge, Mass.) were grown in DMEM with 2 mM L-glutamine (GIBCO, Carlsbad, Calif.) adjusted to contain […] sodium pyruvate, 10 mM nonessential amino acids and 1.5 g/L sodium bicarbonate, with 15% fetal bovine serum (Hyclone, South Logan, Utah) and supplemented with 100 units/mL penicillin G (Sigma, St. Louis, Mo.), 100 μg/mL streptomycin sulfate (Sigma), 30 mM beta-mercaptoethanol (Sigma) and 1000 units/ml murine leukemia inhibitory factor, LIF (Chemicon, Temecula, Calif.). The cells were plated in 10 cm^2 cell culture dishes, coated with 0.1% gelatin B (Sigma) and grown at 37° C. in a 5% CO2 humidifier incubator. The culture medium was changed every 2 days. The cells were subcultured at a split ratio of 1:10 when they reached 80% to 90% confluency, using a 0.25% trypsin-EDTA solution (Sigma). To induce formation of embryoid bodies and differentiation into endothelial cells, J1 cells were plated at a density of 1.25×10^5 cells/100 mm dish, or 3×10^4 cells/6 wells and cultured in the absence of LIF. Fresh media was replenished every 2 days.
Heparinase III (Hep-III) was prepared as described previously (Godavarti, R., et al. (1996) Biochemistry 35, 6846-52). […] Treated cells were analyzed for differentiation into endothelial cells between day 3 and day 15. […]
Cells were harvested at various time points during differentiation, incubated with rat monoclonal antibody against CD16/CD32 (1:50 dilution, Pharmingen, San Diego, Calif.) to block Fey receptors and incubated further with a primary antibody against von Willebrand factor (vWF) (Dako (Carpinteria, Calif.), rabbit polyclonal, added at a 1:100 dilution). […] Cells were then washed twice and were incubated with FITC-conjugated secondary antibody (Jackson ImmunoResearch, West Grove, Pa.) in a 1:100 dilution, washed twice and taken up in OptiMEM (GIBCO/BRL, Carlsbad, Calif.) and analyzed on a Becton Dickinson (Franklin Lakes, N.J.) FACScan flow cytometer (excitation 488 nm, argon laser; emission 580/30). […]

[2] = tested on: differentiating ES cells (J1); test: Real-time PCR of Oct-4, VEGF-R2, VE-cadherin and eNOS transcripts in differentiating ES cells; settings: for Oct-4 transcript levels / VE-cadherin transcript levels / eNOS transcript levels: real-time PCR, FIG. 19
Experimental: as §1
(§2) Heparinase III (Hep-III) was prepared as described previously (Godavarti, R., et al. (1996) Biochemistry 35, 6846-52). Heparinase I (Hep-I) was a generous gift of Momenta Pharmaceuticals (Cambridge, Mass.). Sodium chlorate and heparin were purchased from Sigma and Cambrex BioWhittaker (East Rutherford, N.J.), respectively. To enzymatically modify the HSGAG glycome signature of the cells, cells were washed with phosphate buffer saline (PBS) and incubated with Hep-I or Hep-III for 30 minutes every day at 37° C. in serum free DMEM. Digested HSGAG residues were removed by washing the cells, and cells were then fed with fresh media. In an additional experiment, cells were cultured with medium containing sodium chlorate, which blocks the sulfation of HSGAGs. In a reversal experiment, heparin was added to the culture to overcome the chlorate induced synthetic block. Treated cells were analyzed for differentiation into endothelial cells between day 3 and day 15. Hep-III was added to the cells at a concentration of 2.5 μg/mL, Hep-I was added at a concentration of 1.5 μg/mL, sodium chlorate at 10 mM and heparin (20 μg). The concentrations of enzymes were optimized to exhaustively cleave all cell surface HSGAGs in the given period of time. All enzymes and chemicals were diluted in serum free DMEM.
RNA was isolated from J1 cells using TRIzol (Invitrogen, Carlsbad, Calif.) and RNAlater (Qiagen, Valencia, Calif.) according to the manufacturer's protocol. Single-stranded cDNA was generated via oligo-dT primed reverse transcription, and genes serving as markers for differentiation were quantified using an Abi Prism 7700 real-time PCR thermocycler (Applied Biosystems, Foster City, Calif.). Expression levels were obtained for the marker genes Oct-4, VE-cadherin, VEGF-R2, and eNOS, with β-actin used as a control. PCR conditions involved denaturation for 10 min at 95° C., followed by 40 cycles of denaturation for 20 sec at 94° C., and annealing and extension for 1 min at 60° C. cDNA isolated from J1 cells and primers for the described genes were mixed with SYBR Green PCR Mastermix (Applied Biosystems) for real-time quantification according to the manufacturers instructions. Primers used were 5′-[…]-3′ (SEQ ID NO: 1) and 5′-[…]-3′ (SEQ ID NO: 2) for Oct-4; 5′-[…]-3′ (SEQ ID NO: 3) and 5′-[…]-3′ (SEQ ID NO: 4) for VE-cadherin; 5′-[…]-3′ (SEQ ID NO: 5) and 5′-[…]-3′ (SEQ ID NO: 6) for TIE-2; 5′-[…]-3′ (SEQ ID NO: 7) and 5′-[…]-3′ (SEQ ID NO: 8) for VEGF-R2; 5′-[…]-3′ (SEQ ID NO: 9) and 5% […]-3′ (SEQ ID NO: 10) for ENOS; 5′-[…]-'3 (SEQ ID NO: 11) and 5′-[…]-'3 (SEQ ID NO: 12) for 13-actin. The sulfotransferase primers and conditions were chosen. […]

[3] = tested on: phosphorylation of ERK1/2 (MAPK pathway); test: Western blot of phospho-ERK normalized to total ERK1/2 in differentiating ES cells; settings: for phosphorylation of ERK1/2: Western blot, FIGS. 14 and 18
Experimental: as §2
For elucidating the biochemical pathways involved downstream of the modulation of the cell surface sugars, protein contents of the embryoid bodies were solubilized by rapid mixing with 3× SDS sample buffer under reducing conditions. Equivalent amounts of protein per sample were electrophoretically resolved on 4-12% gradient polyacrylamide gels and transferred onto a nitrocellulose (0.22 μm) membrane. The membrane was subsequently probed with a phosphor-ERK antibody (1:800 dilution, Cell Signaling Technologies, Danvers, Mass.), which specifically detects the phosphorylated forms of ERK1 and 2. The signal was amplified using a 1:2000 dilution of the appropriate horseradish peroxidase-conjugated secondary antibody (BioRad, Hercules, Calif.), and the immunocomplexes were visualized using enhanced chemiluminescence detection (Amersham Life Science, Piscataway, N.J.). The signal was normalized to the expression of total ERK1/2, which was detected on the same blot using ERK1/2 specific antibodies (Santa Cruz, Santa Cruz, Calif., used at a 1:200 dilution). Quantification of the luminescence signal was carried out by a Kodak 2000R imager.
The MAPK pathway is the downstream convergence point of the signaling of several angiogenic factors such as VEGF, FGF, HGF, EGF, PDGF and angiopoietins (Sengupta, S., et al. (2003) Arterioscler Thromb Vasc Biol 23, 69-75). […]

[4] = tested on: differentiating ES cells (J1); test: Confocal microscopy of vWF and Oct-4 staining in differentiating ES cells; settings: for vWF expression (confocal microscopy): FIG. 15A, treated differentiating ES cells; for Oct-4 levels of differentiating cells (confocal microscopy): FIG. 15B
Experimental: as §1, §2
For microscopic analysis of endothelial cells, the differentiating J1 cells were fixed in cold methanol at designated time points, blocked in goat serum and probed overnight with a rabbit primary antibody against vWF, an endothelial cell marker, or Oct-4, a stem cell marker. The sections were washed and re-probed with a goat secondary antibody coupled to FITC. The nuclei were counterstained with propidium iodide. Images were captured using a […] LSM510 confocal microscope at a 512×512 pixels resolution (Leica, Bannockburn, Ill.). Fluorochromes were excited with 488 nm and 543 nm laser lines, and the images were captured using 505-530 BP and 565-615 BP filters at a 512×512 pixels resolution.
To dissect the role of HSGAG structure in ES cell differentiation, the cell surface and extracellular HSGAG moieties of differentiating ES cells were modified using an enzymatic and pharmacological approach. Specifically, differentiating ES cells were incubated with Hep-I or Hep-III for 30 minutes every day to cleave the cell surface and extracellular matrix (ECM) HSGAGs at structurally distinct sites, or cultured in media supplemented with sodium chlorate, which is a pharmacological inhibitor of HSGAG biosynthesis (Safaiyan, F., et al. (1999) J Biol Chem 274, 36267-73). Hep-I cleaves HSGAGs at highly sulfated regions, and Hep-III cleaves HSGAGs at undersulfated regions (Linhardt, R. J., et al. (1990) Biochemistry 29, 2611-7; Godavarti, R., and Sasisekharan, R. (1996) Biochem Biophys Res Commun 229, 770-7). […]

ES cells = test: Optimization of culture conditions for differentiation of ES cells into endothelial cells (marker expression); settings: 15% FBS present, LIF absent
Experimental: Mouse embryonic stem cells (J1) (gift from Bevin Engelward, Mass. Institute of Technology, Cambridge, Mass.) were grown in DMEM with 2 mM L-glutamine (GIBCO, Carlsbad, Calif.) adjusted to contain 100 mM sodium pyruvate, 10 mM nonessential amino acids and 1.5 g/L sodium bicarbonate, with 15% fetal bovine serum (Hyclone, South Logan, Utah) and supplemented with 100 units/mL penicillin G (Sigma, St. Louis, Mo.), 100 μg/mL streptomycin sulfate (Sigma), 30 mM beta-mercaptoethanol (Sigma) and 1000 units/ml murine leukemia inhibitory factor, LIF (Chemicon, Temecula, Calif.). The cells were plated in 10 cm^2 cell culture dishes, coated with 0.1% gelatin B (Sigma) and grown at 37° C. in a 5% CO2 humidifier incubator. The culture medium was changed every 2 days. The cells were subcultured at a split ratio of 1:10 when they reached 80% to 90% confluency, using a 0.25% trypsin-EDTA solution (Sigma). To induce formation of embryoid bodies and differentiation into endothelial cells, J1 cells were plated at a density of 1.25×10^5 cells/100 mm dish, or 3×10^4 cells/6 wells and cultured in the absence of LIF. Fresh media was replenished every 2 days.
To optimize the conditions for efficient differentiation of ES cells into endothelial cells in vitro, the expression levels of ES cell specific and endothelial cell specific markers were analyzed at different stages of differentiation under different cell culture conditions. Specifically, the effects of cell density, the ECM content (i.e., gelatin, collagen, laminin, matrigel), exogenous addition of growth factors (i.e., VEGF, FGF, HGF and insulin) and different types of serum (i.e., Sigma fetal bovine serum (FBS) and Hyclone FBS) were tested.

[5] = heparin added to sodium chlorate treated ES cells

Row | Molecule | decrease of the proportion of cells expressing detectable levels of vWF [1] | Oct-4 transcript levels [2] | VE-cadherin transcript levels [2] | eNOS transcript levels [2] | phosphorylation of ERK1/2 [3] | vWF expression (confocal microscopy) [4] | Oct-4 levels of differentiating cells (confocal microscopy) [4] | effect of exogenous addition of growth factors on differentiation into endothelial cells (ES cells) | also measured
1 | [O-][Cl+2]([O-])O [sodium chlorate, reference compound] | approximately 5 fold | no effect | significantly decreased | significantly decreased | inhibits | inhibitory effects | none of the treatments had significant effects |  | 
2 | HGF: growth factor added exogenously to the culture |  |  |  |  |  |  |  | No effects | 
3 | VEGF |  |  |  |  |  |  |  | No effects | 
4 | heparin [reference compound] |  |  |  |  |  |  |  |  | VE-cadherin transcript levels, reconstitution [2, 5]: increased; eNOS transcript levels, reconstitution [2, 5]: increased; phosphorylation of ERK1/2, reversal of inhibition ([3]; exogenous heparin added to treated cells): inhibition is reversed; vWF staining (confocal microscopy), reconstitution ([4]; heparin added to sodium chlorate treated ES cells during differentiation, FIG. 15C): increased vWF staining
5 | insulin: listed among growth factors added exogenously to the culture |  |  |  |  |  |  |  | No effects | 
6 | B1 | approximately 5 fold | no effect | significantly decreased | significantly decreased | inhibits | inhibitory effects | none of the treatments had significant effects |  | 
7 | B2 | ~3 fold | no effect | decreased | decreased | inhibits | inhibitory effects | none of the treatments had significant effects |  | 
